In US8974768B2, “Azo compounds reducing formation and toxicity of amyloid beta aggregation intermediates” (Max-Delbrueck-Centrum fuer Molekulare Medizin, priority 2010, dated 2015):
Where a name gives a salt, the structure may show the parent alone. Read-outs that look alike come from different tables or passages of the source. Marks after values point to notes of the source that are not given here.

What was measured:
Aβ1-42 peptide = Aβ1-42 peptide (Homo sapiens, UniProt P05067); experiment: Thioflavin T (Thio T)-assay of Aβ aggregation; assay type: biochemical
[1] = Detection of compounds in brain after in vivo administration; details: for Detection in brain after i.v. administration: B6C3 mouse, 5 mg/kg body weight i.v. once, brain samples; for Detectability after oral administration: mouse brain, oral gavage or feeding pellets; for Detection in brain after oral administration, feeding pellet preparation / Detection in brain after oral administration, oral gavage administration: mouse; for Detection in brain after oral administration, feeding pellet preparation: brain samples after one week feeding; for Detection in brain after oral administration, oral gavage administration: five to seven doses over two or three days, sampling 30 min. after last application
in vitro = details: human
Tg2576 mice = experiment: Contextual fear conditioning in Tg2576 mice; assay type: in vivo, mouse; details: 9-month-old Tg2576 mice, feeding pellets for 12 weeks
Protocol: Groups of Tg2576 mice overexpressing the 695-amino acid isoform of human amyloid precursor protein containing a Lys670→Asn, Met671→Leu mutation (Hsiao, K. Science 1996) and wildtype control mice (13-21 per phenotype) were conditioned on day 1 by placing a subject mouse in a contextual fear conditioning chamber (Med Associates, […], Vt.). Exploration was allowed for 2 min, and an auditory cue was presented for 15 s accompanied by an electrical foot shock during the last 2 s. This procedure was repeated and mice were removed from the chamber after 30 s. Twenty hours later, mice were returned to the chamber in which conditioning occured, and their freezing behaviour (fear) was monitored. Freezing was defined as the lack of all movements, except those required for breathing (Comery, T. A., et al. Journal of Neuroscience, 2005). Data were analysed by two-way ANOVA in the S programming environment, followed by Fischer's least significant difference (LSD) pairwise comparison of group means at the p<0.05 significance level.
The contextual fear conditioning paradigm is a form of Pavlovian learning in which an association is made between stimuli and their aversive consequences. Studies of brain function implicate the amygdala in regulating fear, and the hippocampus in regulating the learning of the context in which a fearful event occurred.
The brain circuitry in wild type mice is intact and they are better able to associate an aversive foot shock with the context or environment in which the shock took place. They therefore show more freezing. Transgenic Alzheimer mice have compromised brain circuitry due to the toxic effects of amyloid-beta protein. They are therefore less able to associate an aversive shock with a context and show less freezing.
A substance that reverses the toxic effects of amyloid-beta in Alzheimer's mice will help in reconsolidating the impaired brain circuitry so that these mice begin to show more fear (freezing behavior) after treatment. This paradigm is therefore a robust method for showing the effect of drug candidate molecules in Alzheimer mice.

[2] = parameters: Detection in brain after i.v. administration: key to the marks not given beside the values; details: mouse, in vivo; for Detection in brain after i.v. administration: iv, 5 mg/kg
[3] = 30 μM Aβ1-42 peptide, 48 h at 37° C., vs DMSO control, read-out: ThioT: IC50

Sequence of Aβ1-42 peptide (P05067 672-713): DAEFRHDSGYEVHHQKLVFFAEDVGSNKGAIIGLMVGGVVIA

| SMILES | IC50 (Aβ1-42 peptide; [3]) [µM] | Detection in brain after i.v. administration [1] | IC50 at 48 h (in vitro) [µM] | also measured |
| --- | --- | --- | --- | --- |
| c1ccc(N=Nc2ccc(Nc3ccccc3)cc2)cc1 [Compound 1, N-phenyl-4-(phenyldiazenyl)aniline] | 4.5 | ++ | > 30 | Detectability after oral administration [1]: excellent; Detection in brain after oral administration, feeding pellet preparation [1]: ++^a), b); Detection in brain after oral administration, oral gavage administration [1]: ++^a), b); Contextual memory (freezing behaviour) (Tg2576 mice): improvement |
| CN(C)c1ccc(N=Nc2ccc(N)cc2)cc1 [Compound 9, 4-((4-aminophenyl)diazenyl)-N,N-dimethylaniline] |  |  |  | IC50 (Aβ1-42 peptide): 2.1 µM; IC50 (in vitro): > 100 µM; Detection in brain after i.v. administration [2]: ++; Detectability after oral administration [2]: excellent; Detection in brain after oral administration, feeding pellet preparation [2]: ++^a)/+^b); Detection in brain after oral administration, oral gavage administration [2]: ++^a)/+^b); Contextual memory (freezing behaviour) (Tg2576 mice): improvement |
| Oc1ccc2ccccc2c1N=Nc1ccccn1 [Compound 5, 1-(pyridin-2-yldiazenyl)naphthalen-2-ol] | 12.2 | ++ | > 10 |  |
| Oc1ccc2ccccc2c1N=Nc1ccccc1 [Compound 25, 1-(phenyldiazenyl)naphthalen-2-ol] | 43.9 |  |  |  |
| O=S(=O)(O)c1ccc(O)c(N=Nc2ccc(O)cc2O)c1 [Compound 29, sodium 3-((2,4-dihydroxyphenyl)diazenyl)-4-hydroxybenzenesulfonate] | 19.8 |  |  |  |
| c1ccc(N=Nc2ccccc2)cc1 [compound 33, 1,2-diphenyldiazene, reference compound] |  |  |  | IC50 (Aβ1-42 peptide): 1090 µM |
| Cc1cc(N=Nc2ccccc2C)ccc1N [Compound 26, 2-methyl-4-(o-tolyldiazenyl)aniline] | 31.8 |  |  |  |
| CCOc1ccc(N=Nc2ccc(C)cc2)cc1C [compound 34, 1-(4-ethoxy-3-methylphenyl)-2-p-tolyldiazene, reference compound] | 105 |  |  |  |
| O=S(=O)(O)c1cc(O)c2c(N=Nc3ccc(O)cc3O)cc(S(=O)(=O)O)cc2c1 [Compound 28, 4-((2,4-dihydroxyphenyl)diazenyl)-5-hydroxynaphthalene-2,7-disulfonic acid] | 19.2 |  |  |  |
| Nc1ccc(N=Nc2ccc(Nc3ccccc3)cc2)cc1 [Compound 24, 4-((4-aminophenyl)diazenyl)-N-phenylaniline] | 4.8 |  | > 30 |  |
| O=S(=O)(O)c1ccc(N=Nc2ccc(O)cc2O)cc1 [Compound 27, sodium 4-((2,4-dihydroxyphenyl)diazenyl)benzenesulfonate] | 61.5 |  |  |  |
| O=[N+]([O-])c1ccc(N=Nc2ccc(O)cc2O)cc1 [Compound 13, 4-((4-nitrophenyl)diazenyl)benzene-1,3-diol] | 1.1 | ++ |  | Detectability after oral administration [1]: excellent; Detection in brain after oral administration, feeding pellet preparation [1]: ++^a), b); Detection in brain after oral administration, oral gavage administration [1]: ++^a), b); IC50 (in vitro): ~2 µM |
| CN(C)c1ccc(N=Nc2ccccc2)cc1 [Compound 21, N,N-dimethyl-4-(phenyldiazenyl)aniline] |  |  |  | IC50 (Aβ1-42 peptide): 16.8 µM; IC50 (in vitro): > 100 µM |
| Oc1ccc(N=Nc2nccs2)c(O)c1 [Compound 14, 4-(thiazol-2-yldiazenyl)benzene-1,3-diol] | 4.8 | − | > 3 |  |
| Oc1ccc(N=Nc2ncn[nH]2)c(O)c1 [Compound 17, 4-((1H-1,2,4-triazol-5-yl)diazenyl)benzene-1,3-diol] | 8 |  | > 100 |  |
| O=C(O)c1cc(N=Nc2ccccc2)ccc1O [A, 2-hydroxy-5-(phenyldiazenyl)benzoic acid, reference compound] | 57.4 |  |  |  |
| Oc1ccc(N=Nc2ccccc2)cc1 [Compound 4, 4-(phenyldiazenyl)phenol] | 13.2 |  | ~90 |  |
| O=S(=O)(O)c1cccc(N=Nc2ccc(Nc3ccccc3)cc2)c1 [Compound 11] | 9.5 |  | > 100 |  |
| COc1ccc(N=Nc2nccs2)c(O)c1 [Compound 30, 5-methoxy-2-(thiazol-2-yldiazenyl)phenol] | 27.4 |  |  |  |
| CN(C)c1ccc(N=Nc2ccc(N=C=S)cc2)cc1 [Compound 10, 4-((4-isothiocyanatophenyl)diazenyl)-N,N-dimethylaniline] |  |  |  | IC50 (Aβ1-42 peptide): 0.4 µM; IC50 (in vitro): > 100 µM; Detection in brain after i.v. administration [2]: ++; Detectability after oral administration [2]: excellent; Detection in brain after oral administration, feeding pellet preparation [2]: ++^a), b); Detection in brain after oral administration, oral gavage administration [2]: ++^a), b) |
| O=[N+]([O-])c1ccc(N=Nc2c(O)ccc3ccccc23)cc1 [Compound 31, 1-((4-nitrophenyl)diazenyl)naphthalen-2-ol] | 87.1 |  |  |  |
| O=C(O)c1ccccc1N=Nc1ccc(O)cc1 [B, 2-((4-hydroxyphenyl)diazenyl)Benzoic acid, reference compound] | 736 |  |  |  |
| CN(C)CCCN1c2ccccc2Sc2ccc(Cl)cc21 [Chlorpromazine, Chlorpromazine hydrochloride, reference compound] |  |  | 14.1 |  |

The remaining compounds from weak to strong by IC50 (Aβ1-42 peptide; [3]), led by results:

| IC50 (Aβ1-42 peptide; [3]) [µM] | Detection in brain after i.v. administration [1] | IC50 at 48 h (in vitro) [µM] | SMILES | also measured |
| --- | --- | --- | --- | --- |
| 3.3 |  | > 30 | Cc1cccc(N=Nc2cc(C=O)c(O)cc2O)c1 [Compound 16, 2,4-dihydroxy-5-(m-tolyldiazenyl)benzaldehyde] |  |
| 3.3 |  | > 100 | Nc1ccc(N=Nc2ccc([N+](=O)[O-])cc2)cc1 [Compound 3, 4-((4-nitrophenyl)diazenyl)aniline] |  |
| 3.1 | ++ | > 3 | CCNc1ccc2ccccc2c1N=Nc1ccc(N=Nc2ccccc2)cc1 [Compound 7, N-ethyl-1-((4-(-phenyldiazenyl)phenyl)diazenyl)naphthalen-2-amine] |  |
| 3 | − | > 1 | Oc1ccc(N=Nc2ccccn2)c(O)c1 [Compound 12, 4-(pyridin-2-yldiazenyl)benzene-1,3-diol] |  |
| 2.4 | ++ | ~13 | Cc1cc(N=Nc2nccs2)c(O)cc1O [Compound 18, 4-methyl-6-(thiazol-2-yldiazenyl)benzene-1,3-diol] | Detectability after oral administration [1]: excellent; Detection in brain after oral administration, oral gavage administration [1]: ++^b)/n.d.^b) |
| 2.4 | − | ~101 | Cc1cc(O)cc(O)c1N=Nc1nccs1 [Compound 22, 5-methyl-4-(thiazol-2-yldiazenyl)benzene-1,3-diol] |  |
| 2.2 |  | ~31 | Oc1ccc(N=Nc2ccccc2)c(O)c1 [Compound 15, 4-(phenyldiazenyl)benzene-1,3-diol] |  |
| 1.3 | ++ | ~3 | Oc1ccc(N=Nc2cc(Cl)ccc2Cl)c(O)c1 [Compound 20, 4-((2,5-dichlorophenyl)diazenyl)benzene-1,3-diol] |  |
| 1.1 |  | > 30 | O=[N+]([O-])c1ccc(N=NNc2ccc(N=Nc3ccccc3)cc2)cc1 [Compound 23, 1-(4-nitrophenyl)-3-(4-(phenyldiazenyl)phenyl)triaz-1-ene] |  |
| 0.9 | ++ | ~11 | Nc1ccc(N=Nc2cccc(N=Nc3ccc(N)cc3N)c2)c(N)c1 [Compound 6, 4,4′-1,3-phenylenebis(diazene-2,1-diyl)dibenzene-1,3-diamine] |  |
| 0.9 | ++ | ~41 | Cc1cc(O)cc(O)c1N=Nc1ccc([N+](=O)[O-])cc1 [Compound 19, 5-methyl-4-((4-nitrophenyl)diazenyl)benzene-1,3-diol] |  |
| 0.5 |  |  | O=C(O)c1cc(N=Nc2ccc(-c3ccc(N=Nc4ccc(O)c(C(=O)O)c4)cc3)cc2)ccc1O [C, (5-5′-biphenyl-4,4′-diylbis(diazene-2,1-diyl)bis(2-hydroxybenzoic acid)), reference compound] |  |
